# Laboratory results taken from publication PMC10924921, “Mi-2β promotes immune evasion in melanoma by activating EZH2 methylation” (Nature Communications, 2024).
# How the values were obtained:
# [1] = system: tumor-infiltrating lymphocytes in B16F10 graft; test: Flow cytometry of tumor-infiltrating lymphocytes, B16F10 graft; type: in vivo, C57BL/6 mice
# Method: Tumors were minced with scissors, and then digested with the digestion buffer (RPMI 1640 medium, 5% FBS, 1% penicillin-streptomycin, 25 mM HEPES, and 300 U collagenase (Sigma C0130)) on a shaker at 37 °C for 2 hours. Single cells were prepared through a 70 μm cell strainer. Erythrocytes were removed by incubation in red blood cell lysis buffer (R7757, Sigma) at room temperature for 5 min. The cells were prepared in PBS (with concentration of ~2 × 10^7) for studies.
# The single-cell suspension were fixed with 2% paraformaldehyde solution (J19943K2, Thermo Scientific). CD45 + T cells were selected from single-cell suspension (about 2 × 10^7 cells digest from […] tumor tissue) by flow cytometry with the follow antibodies (anti-mouse CD45; BD pharmingen, 561875). And then the cells were stained anti-mouse CD3e PE (145-2C11, BD pharmingen, 553063), anti-mouse CD4 FITC (RM4-5, BD pharmingen, 553046), anti-mouse CD4 PE/Cy7 (GK1.5, BioLegend, 100421), anti-mouse CD8 FITC (53-6.7, BD pharmingen, 553031), anti-mouse CD8a APC/Cy7 (53-6.7, BioLegend 100713), anti-mouse IFN-γ PE (XMG1.2, eBioscience, 12731181), anti-mouse CD69 PE (H1.2F3, Biolegend, 104508), anti-mouse CD25 Alexa Fluor 488 (PC61.5, eBioscience, 53025182), anti-mouse CD107a-V450 (1D4B, BD, 560648), anti-human/mouse granzyme B FITC (GB11, BioLegend, 515403). […]
# B16F10 cell graft = test: Antibody-mediated CD8 T-cell depletion and Z36-MP5 treatment; type: in vivo, mouse; conditions: Z36-MP5 30 mg/kg, 200 µg anti-CD8
# [2] = system: Pmel-1 T cells co cultured with tumor cells; test: Pmel-1 T-cell killing of tumor cells; type: cell-based, mouse
# Method: To test whether Z36-MP5 affects cell proliferation, cells were seeded into 96-well plates at a density of 1 × 10^3 cells/100 μl per well. CCK-8 was used to detect changes in proliferation ability after 3 days of treatment with Z36-MP5 (25 μM). To test whether Mi-2β expression in T cells or treatment of T cells with Z36-MP5 affects the ability of T cells to kill tumor cells, Mi-2β in Pmel-1 T cells was manipulated or Pmel-1 cells were exposed to Z36-MP5 (25 μM) for 24 hrs. The number of cells was quantified. One thousand Pmel-1 T cells were then co cultured with 1000 tumor cells for 24 hrs, and the number of tumor cells was counted.
# Supplementary Figure 8. In vitro assay for Mi-2β inhibitors. a The body weight changes of C57BL/6J mice treated with Z36-MP5 (30 mg/kg/day) for 2 weeks. Data are mean ± SEM (n=5). b H&E staining of tissues in C57BL/6J mice treated with or without Z36 -MP5 (30 mg/kg/day) for 2 weeks. […]
# The growth of tumor grafts was measured. n = 5. g Mice bearing B16F10 cell s were treated with MS177 (100 mg/kg, 5 days) and then Z36 -MP5 (30 mg/kg/day) or vehicles, accompanied with anti -PD-1 antibody […]
smiles,measurement,setting,value
Cn1c(=O)[nH]c2ccc(-c3cccc(C(=O)NC4CCn5ccnc5C4)c3)cc21 (stereo not shown) [Z36-MP5],CD8+ T-cell TILs in graft melanomas,[1],moderate increase
same,"GZMB expression and activation markers CD69, IFN-γ, CD25, CD107 in tumor-infiltrating CD8+ T cells",[1],upregulation
same,effectiveness after neutralization of CD8 T cells,B16F10 cell graft,completely abolished the effectiveness
same,killing potential of T cells,[2],not significantly inhibited
